Assay results: US20230255943A1, “MMP-9 AND MMP-12 INHIBITION FOR TREATING SPINAL CORD INJURY OR RELATED INJURY TO NEUROLOGICAL TISSUE” (The University of Birmingham, priority 2020, published 2023)

Tests used:
[1] = test system: rats with DC crush injury; test: CAP traces after DC injury in rats; type: in vivo; conditions: rat DC injury, 6 weeks
Procedure: (§1) The efficacy of oral AZD3342 in the DC injury model in adult Sprague-Dawley rat was also assessed. Animals were divided into 6 groups: (1), Sham (control); (2), DC crush injury+Vehicle; (3), DC crush injury+15 mg/kg AZD3342; (4), DC crush injury+75 mg/kg […]; (5), DC crush injury+375 mg/kg AZD3342; and (6), DC crush injury+Melatonin. Animals were dosed twice daily with oral AZD3342 or vehicle with the experimenters masked to the treatment conditions. These experiments were performed with n=6 rats/group and repeated on 2-3 independent occasions (total n=12-18 rats/group/test).
Compound action potentials (CAP) were recorded at 6 w weeks after DC injury and treatment, as described previously—for example B. C. Hains, C. Y. Saab, A. C. […]
(§2) Briefly, the experimenter was masked to the treatment status of the animals and the CAP amplitude was calculated between the negative deflection after the stimulus artifact and the next peak of the wave. CAP area was also calculated by rectifying the CAP component (full-wave rectification) and measuring its area. To confirm our recordings and that a CAP could not be recorded, the dorsal half of the spinal cord was transected after each experiment between the stimulating and recording electrodes.

[2] = test system: rats with DC crush injury; test: Ladder crossing (locomotor function) in rat DC model; type: in vivo; conditions: over 6 weeks
Procedure: as §1
Functional testing after DC lesion and treatment was carried out as described previously (N. D. Fagoe, C. L. Attwell, R. Eggers, L. Tuinenbreijer, D. Kouwenhoven, J. Verhaagen, M. R. Mason, Evaluation of Five Tests for Sensitivity to Functional Deficits following Cervical or Thoracic Dorsal Column Transection in the Rat. PLoS One 11, e0150141 (2016)). […]
(§3) Horizontal ladder test: This tests the animals locomotor function and is performed on a 0.9-meter-long horizontal ladder with a diameter of 15.5 cm and randomly adjusted rungs with variable gaps of 3.5-5.0 cm. Animals were assessed traversing the ladder and the left and right rear paw slips were recorded along with the total number of steps and the mean error rate as: the number of slips/total number of steps.

[3] = test system: mice with DC crush injury; test: Electrophysiology: compound action potentials (CAP) across DC lesion in mice; type: in vivo, mouse
Procedure: Compound action potentials (CAP) were recorded at 6 w weeks after DC injury and treatment, as described previously—for example B. C. Hains, C. Y. Saab, A. C. Lo, S. G. Waxman, Sodium channel blockade with phenytoin protects spinal cord axons, enhances axonal conduction, and improves functional motor recovery after contusion SCI. Exp Neurol 188, 365-377 (2004).
as §2

[4] = test system: mice with DC crush injury; test: Horizontal ladder test (locomotor function) after DC injury in mice; type: in vivo, mouse
Procedure: Functional testing after DC lesion and treatment was carried out as described previously (N. D. Fagoe, C. L. Attwell, R. Eggers, L. Tuinenbreijer, D. Kouwenhoven, J. Verhaagen, M. R. Mason, Evaluation of Five Tests for Sensitivity to Functional Deficits following Cervical or Thoracic Dorsal Column Transection in the Rat. PLoS One 11, e0150141 (2016)).
Briefly, animals (n=18/group) were first trained to master traversing a horizontal ladder for 1 w before functional testing. Baseline parameters were established by performing tests at 2-3d before injury. Animals were then tested at 2d, 1 w, 2 w, 3 w, 4 w, 5 w and 6 w after DC injury+treatment. Experiments were performed by an observer masked to the treatment conditions in the same order and time of day with each test performed for 3 individual trials.
as §3

MMP-2 = biological target: T1, MMP-2 (Mus musculus, UniProt P33434); test: MMP-2 activity after DC injury and AZD1236 administration; type: in vivo; conditions: oral and intrathecal, effective dose
T1 construct: from tissue

mice with CC SCI = test: Assessment of neuropathic pain (mechanical, thermal, cold allodynia) in CC model; type: in vivo, mouse
Procedure: CC SCI was administered at the T7-T8 vertebral level after exposure of T6-T9 by laminectomy. The aneurysm clip applicator was oriented in a bilateral direction and an aneurysm clip with a closing force of 24 g was applied extradurally for 60 s, as described previously (A. S. Rivlin, C. H. Tator, Effect of duration of acute spinal cord compression in a new acute cord injury model in the rat. Surg Neurol 10, 38-43 (1978):E. Esposito, I. Paterniti, E. Mazzon, T. Genovese, M. Galuppo, R. Meli, P. Bramanti, S. Cuzzocrea, MK801 attenuates secondary injury in a mouse experimental compression model of spinal cord trauma. BMC Neurosci 12, 31 (2011)).
The urinary bladders were manually emptied twice daily until bladder function was regained. Adult male C57BL6 mice (25-30 g) (Charles River, Margate, UK) were randomly allocated to either: (1), Sham (control; laminectomy but no CC SCI); (2), CC SCI+vehicle; (3), CC SCI+200 mg/kg AZD1236 (oral); (4), CC SCI+5 mg/kg AZD1236 (it). All experiments were performed with n=6 mice/group and repeated on 3 independent occasions (total=18 mice/group/test).
Mechanical allodynia was measured in mice using a series of von Frey filaments (0.25 g-15 g) applied to the plantar surface of the hind-paw by an experimenter masked to the treatment conditions and withdrawal of the paw was recorded as a positive response (F. Nasirinezhad, S. Gajavelli, B. Priddy, S. Jergova, J. Zadina, J. Sagen, Viral vectors encoding endomorphins and serine histogranin attenuate neuropathic pain symptoms after spinal cord injury in rats. Mol Pain 11, 2 (2015)).
The hair with the lowest force required to elicit a paw withdrawal response was recorded. […]
Thermal hyperalgesia was tested using established methods of plantar heat sensitivity tests described previously (S. Surey, M. Berry, A. Logan, R. Bicknell, Z. Ahmed, Differential cavitation, angiogenesis and wound-healing responses in injured mouse and rat spinal cords. Neuroscience 275, 62-80 (2014)). […] The reaction time of paw withdrawal was recorded for five separate tests for each hind limb with a 30-s interval before re-testing on the same paw. […]
Cold allodynia was measured by an experimenter masked to the treatment conditions as the number of foot withdrawal responses after application of an acetone drop to the plantar surface of the paw (F. Nasirinezhad, S. Gajavelli, B. Priddy, S. Jergova, J. Zadina, J. Sagen, Viral vectors encoding endomorphins and serine histogranin attenuate neuropathic pain symptoms after spinal cord injury in rats. Mol Pain 11, 2 (2015)). Testing was repeated five times with an interval of 5 min between each test and the response frequency to acetone was expressed as a percent response frequency ([number of paw withdrawals/number of trials]×100).

[5] = optimal doses, 24 h delay vs immediate

T1 sequence (P33434 110-662): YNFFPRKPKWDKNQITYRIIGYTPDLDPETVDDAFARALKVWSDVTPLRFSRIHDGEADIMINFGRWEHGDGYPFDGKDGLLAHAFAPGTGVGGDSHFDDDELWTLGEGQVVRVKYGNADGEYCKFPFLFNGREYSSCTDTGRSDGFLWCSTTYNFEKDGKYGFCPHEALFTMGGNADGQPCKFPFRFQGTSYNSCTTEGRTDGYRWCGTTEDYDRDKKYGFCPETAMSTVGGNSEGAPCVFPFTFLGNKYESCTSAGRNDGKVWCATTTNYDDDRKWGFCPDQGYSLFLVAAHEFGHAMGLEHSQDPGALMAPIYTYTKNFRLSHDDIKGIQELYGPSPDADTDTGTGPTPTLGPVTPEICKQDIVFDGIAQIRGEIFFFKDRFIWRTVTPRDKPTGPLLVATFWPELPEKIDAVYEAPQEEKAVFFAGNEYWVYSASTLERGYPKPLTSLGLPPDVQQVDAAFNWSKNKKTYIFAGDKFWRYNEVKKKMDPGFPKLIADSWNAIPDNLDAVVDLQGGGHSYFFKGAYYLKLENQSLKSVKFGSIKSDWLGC

SMILES | electrophysiological CAP traces [1] | locomotor function (ladder crossing) [2] | dorsum cord potentials, CAP amplitudes, CAP areas, 24-h delayed treatment [3, 5] | CAP area relative to Sham-treated controls ([3]; oral) [%] | CAP wave ([3]; oral 200 mg/kg, 6 weeks after DC injury) | mean CAP amplitude ([3]; oral, all stimulation intensities) | CAP area ([3]; oral, sham 0.65±0.02, DC+vehicle 0.06±0.02) [mV×ms] | locomotor function, 24-h delayed treatment [4, 5] | improvement in locomotor function ([4]; oral) [%] | mean error ratio, ladder crossing test ([4]; oral, by 2 weeks after injury) | DC injury-induced rise in MMP-2 activity (MMP-2) | cold allodynia, improvement (mice with CC SCI; oral delivery) | mechanical allodynia, improvement (mice with CC SCI; oral delivery) | thermal allodynia, improvement (mice with CC SCI; oral delivery) | improvements in mechanical, thermal and cold allodynia vs pregabalin and gabapentin (mice with CC SCI; pregabalin 30 mg/kg, gabapentin 100 mg/kg)
C[C@]1(CS(=O)(=O)N2CCC(Oc3ccc(Cl)cn3)CC2)NC(=O)NC1=O [AZD3342, (5S)-5-[4-(5-chloro-pyridin-2-yloxy)-piperidine-1-sulfonylmethyl]-5-methylimidazolidine-2,4-dione] | significantly improved | significantly improved | – | – | – | – | – | – | – | – | – | – | – | – | –
C[C@]1(CS(=O)(=O)N2CC=C(C#Cc3cnc(C4CC4)nc3)CC2)NC(=O)NC1=O [AZD1236] | – | – | equally as effective as immediate delivery | 80 | restored a significant CAP wave | significantly larger CAP amplitudes | 0.52±0.09 | equally as effective as immediate delivery | 85 | indistinguishable from sham-treated animals | no difference | > 80 % of sham-treated controls | > 80 % of sham-treated controls | > 80 % of sham-treated controls | significantly better
